# Reference: patent publication US12590091B2, “1H-pyrrolo[3,2-C]pyridine and 1H-pyrrolo[2,3-C]pyridine derivatives as TLR9 inhibitors for the treatment of fibrosis” (BRISTOL-MYERS SQUIBB COMPANY, priority 2020, dated 2026)
# Target: T1, human TLR9 (Homo sapiens, UniProt Q9NR96)
# T1 construct: host or cells: HEK-Blue cells
# T1 sequence (Q9NR96 26-1032): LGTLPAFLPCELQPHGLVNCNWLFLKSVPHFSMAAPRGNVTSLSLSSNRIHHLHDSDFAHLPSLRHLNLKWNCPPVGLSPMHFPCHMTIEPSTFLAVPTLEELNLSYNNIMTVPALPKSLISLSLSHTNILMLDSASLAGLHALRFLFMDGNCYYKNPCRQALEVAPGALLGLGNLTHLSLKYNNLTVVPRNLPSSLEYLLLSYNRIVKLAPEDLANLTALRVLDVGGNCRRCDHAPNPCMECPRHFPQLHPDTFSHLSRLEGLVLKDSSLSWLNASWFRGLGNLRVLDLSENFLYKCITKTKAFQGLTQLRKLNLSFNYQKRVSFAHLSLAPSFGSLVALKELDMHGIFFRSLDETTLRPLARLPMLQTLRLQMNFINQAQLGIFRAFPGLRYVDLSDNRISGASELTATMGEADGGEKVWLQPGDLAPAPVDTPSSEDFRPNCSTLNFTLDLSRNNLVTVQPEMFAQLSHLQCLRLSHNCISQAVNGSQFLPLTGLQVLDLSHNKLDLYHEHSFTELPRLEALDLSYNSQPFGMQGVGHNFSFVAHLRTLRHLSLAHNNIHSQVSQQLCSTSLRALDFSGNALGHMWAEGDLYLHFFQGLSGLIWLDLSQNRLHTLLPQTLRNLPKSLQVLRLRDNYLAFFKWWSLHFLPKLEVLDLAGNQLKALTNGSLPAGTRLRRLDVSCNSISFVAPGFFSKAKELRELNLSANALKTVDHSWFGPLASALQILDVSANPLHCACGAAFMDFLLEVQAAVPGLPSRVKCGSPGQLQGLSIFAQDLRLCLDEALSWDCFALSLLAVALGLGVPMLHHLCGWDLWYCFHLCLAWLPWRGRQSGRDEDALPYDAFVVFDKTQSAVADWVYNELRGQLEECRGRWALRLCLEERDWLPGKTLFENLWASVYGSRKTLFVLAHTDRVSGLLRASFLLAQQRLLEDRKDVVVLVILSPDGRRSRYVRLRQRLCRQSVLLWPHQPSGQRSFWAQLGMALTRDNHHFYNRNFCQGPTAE
# Assay: TLR9 inhibition reporter assay (HEK-Blue cells, SEAP reporter)
# Type: cell-based
# Conditions: HEK-Blue cells overexpressing human TLR9, stimulated with ODN2006 5 nM, 22 hour incubation
# Method in brief: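 HEK-Blue cells overexpressing human TLR9 (25,000 cells/well), NF-κB/AP-1-driven SEAP reporter. Compounds at 0.05 nM–50 μM final, 22 h at 37 °C, 5% CO2 with agonist. SEAP detected with HEK-Blue Detection medium; % inhibition versus agonist plus DMSO and known-inhibitor wells.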
row,IC50 [µM],Compound
1,0.027,"COc1ccc(-c2c(C)n(C)c3cnc(-c4ccc(N5CCN(CCC(C)(C)O)CC5)cc4)cc23)cc1OC [Example 33, 4-(4-(4-(3-(3,4-dimethoxyphenyl)-1,2-dimethyl-1H-pyrrolo[2,3-c]pyridin-5-yl)phenyl)piperazin-1-yl)-2-methylbutan-2-ol]"
2,0.01,"Cc1nc(-c2ccc(N3CCN(CC(C)C)CC3)cc2)cc2c1cc(-c1ccc(S(C)(=O)=O)cc1)n2C [Example 34, 6-(4-(4-isobutylpiperazin-1-yl)phenyl)-1,4-dimethyl-2-(4-(methylsulfonyl)phenyl)-1H-pyrrolo[3,2-c]pyridine]"
3,0.71,"Cc1nc(-c2ccc(N3CCN(C4CCOCC4)CC3)cc2)cc2c1cc(-c1ccc(S(C)(=O)=O)cc1)n2C [Example 35, 1,4-dimethyl-2-(4-(methylsulfonyl)phenyl)-6-(4-(4-(tetrahydro-2H-pyran-4-yl)piperazin-1-yl)phenyl)-1H-pyrrolo[3,2-c]pyridine]"
4,0.059,"Cc1nc(-c2ccc(N3CCN(CCCO)CC3)cc2)cc2c1cc(-c1ccc(S(C)(=O)=O)cc1)n2C [Example 36, 3-(4-(4-(1,4-dimethyl-2-(4-(methylsulfonyl)phenyl)-1H-pyrrolo[3,2-c]pyridin-6-yl)phenyl)piperazin-1-yl)propan-1-ol]"
5,0.057,"Cc1nc(-c2ccc(N3CCN(C4CCOC4)CC3)cc2)cc2c1cc(-c1ccc(S(C)(=O)=O)cc1)n2C (stereo not drawn) [Example 37, 1,4-dimethyl-2-(4-(methylsulfonyl)phenyl)-6-(4-(4-(tetrahydrofuran-3-yl)piperazin-1-yl)phenyl)-1H-pyrrolo[3,2-c]pyridine]"
6,0.056,"COCCN1CCN(c2ccc(-c3cc4c(cc(-c5ccc(S(C)(=O)=O)cc5)n4C)c(C)n3)cc2)CC1 [Example 38, 6-(4-(4-(2-methoxyethyl)piperazin-1-yl)phenyl)-1,4-dimethyl-2-(4-(methylsulfonyl)phenyl)-1H-pyrrolo[3,2-c]pyridine]"
7,0.236,"Cc1nc(-c2ccc(C3CCN(CCCO)CC3)cc2)cc2c1cc(-c1ccc(S(C)(=O)=O)cc1)n2C [Example 41, 3-(4-(4-(1,4-Dimethyl-2-(4-(methylsulfonyl)phenyl)-1H-pyrrolo[3,2-c]pyridin-6-yl)phenyl)piperidin-1-yl)propan-1-ol]"
8,0.079,"Cc1nc(-c2cc(F)c(N3CCNCC3)cc2F)cc2c1cc(-c1ccc(S(C)(=O)=O)cc1)n2C [Example 43, 6-(2,5-Difluoro-4-(piperazin-1-yl)phenyl)-1,4-dimethyl-2-(4-(methylsulfonyl)phenyl)-1H-pyrrolo[3,2-c]pyridine]"
9,0.096,"Cc1nc(-c2ccc(CN3CCN(CC(C)(C)O)CC3)cc2)cc2c1cc(-c1ccc(S(C)(=O)=O)cc1)n2C [Example 44, 1-(4-(4-(1,4-Dimethyl-2-(4-(methylsulfonyl)phenyl)-1H-pyrrolo[3,2-c]pyridin-6-yl)benzyl)piperazin-1-yl)-2-methylpropan-2-ol]"
10,0.077,"Cc1nc(-c2ccc(N3CCN(CCCO)CC3)cc2)cc2c1cc(-c1ccc(S(=O)(=O)C3CC3)cc1)n2C [Example 47, 3-(4-(4-(2-(4-(cyclopropylsulfonyl)phenyl)-1,4-dimethyl-1H-pyrrolo[3,2-c]pyridin-6-yl)phenyl)piperazin-1-yl)propan-1-ol]"
11,0.385,"COCCN1CCN(c2ccc(-c3cc4c(cc(-c5ccc(S(=O)(=O)C6CC6)cc5)n4C)c(C)n3)cc2)CC1 [Example 48, 2-(4-(cyclopropylsulfonyl)phenyl)-6-(4-(4-(2-methoxyethyl)piperazin-1-yl)phenyl)-1,4-dimethyl-1H-pyrrolo[3,2-c]pyridine]"
12,0.021,"CC(C)CN1CCN(c2ccc(-c3cc4c(cn3)cc(-c3ccc(S(C)(=O)=O)cc3)n4C)cc2)CC1 [Example 53, 6-(4-(4-isobutylpiperazin-1-yl)phenyl)-1-methyl-2-(4-(methylsulfonyl)phenyl)-1H-pyrrolo[3,2-c]pyridine]"
